The results in this text go back to BindingDB's records for patent US20230339882 (Betta Pharmaceuticals, 2023).

The IC50 is the point on the concentration scale where inhibition reaches its midpoint. Higher therefore signals weaker potency.

Some results are limits rather than exact numbers.

The target in data set [1] is T1, Tyrosine-protein phosphatase non-receptor type 11 (Homo sapiens, UniProt Q06124).
T1 sequence (Q06124 whole entry): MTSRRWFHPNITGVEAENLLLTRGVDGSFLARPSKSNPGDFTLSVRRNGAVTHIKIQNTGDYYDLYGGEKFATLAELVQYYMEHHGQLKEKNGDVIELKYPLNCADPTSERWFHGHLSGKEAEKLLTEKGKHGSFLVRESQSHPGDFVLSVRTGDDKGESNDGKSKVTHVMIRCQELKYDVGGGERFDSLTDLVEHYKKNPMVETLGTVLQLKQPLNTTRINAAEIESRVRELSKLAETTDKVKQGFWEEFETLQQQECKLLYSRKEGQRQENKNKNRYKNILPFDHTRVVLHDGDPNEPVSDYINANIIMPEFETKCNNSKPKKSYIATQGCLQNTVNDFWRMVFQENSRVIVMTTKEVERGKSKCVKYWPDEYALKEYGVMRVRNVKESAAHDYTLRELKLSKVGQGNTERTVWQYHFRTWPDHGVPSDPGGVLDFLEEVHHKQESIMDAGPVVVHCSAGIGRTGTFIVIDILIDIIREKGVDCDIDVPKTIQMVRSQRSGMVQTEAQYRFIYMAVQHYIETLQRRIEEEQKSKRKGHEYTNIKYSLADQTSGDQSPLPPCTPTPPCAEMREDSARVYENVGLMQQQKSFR
The data set is described as follows: SHP2 Allosteric Inhibitory Enzyme Activity Assay. An excerpt: SHP2 is allosterically activated by binding of a bis-tyrosyl-phosphorylated peptide to its Src homology 2 (SH2) domain. This later activation step results in the release of the autoinhibitory interface of SHP2, which in turn activates the SHP2 protein tyrosine phosphatase (PTP) and is available for substrate recognition and reaction catalysis. The catalytic activity of SHP2 was monitored using the surrogate DiFMUP in a rapid fluorescence assay format.[0511]experiment procedure:(1) Compound preparation:The compounds of the present invention (10 mM stock solution) were diluted to appropriate times with 100% DMSO, and the final test concentrations of the compounds of the present invention were 10 µM, 3.3333 µM, 1.1111 µM, 0.3704 µM, 0.1235 µM, 0.0412 µM, 0.0137 µM, 0.0046 µM, 0.0015 µM, 0.00 µM;(2) Prepare the enzyme reaction working solution:Perform SHP2 enzymatic assays in 96-well black polystyrene plates (flat bottom, low flange, non-binding surface) (Perki Elmer, Cat#6005270) at room temperature using a final reaction volume of 50 µL and the following assay buffer conditions: 60 mM HEPES, 75 mM NaCl, 75 mM KCl, 0.05% BRIJ-35, 1 mM EDTA, 5 mM DTT.(3) Enzyme-catalyzed reaction and data monitoring:Add the compound of the present invention to the corresponding 96-well plate, and set the blank test well without compound and enzyme only with buffer. Thaw SHP2 Activating Peptide (IRS1_pY1172(dPEG8)pY1222) on ice, add 25 µM to each well, then add 0.2 ng of SHP2 protein sample to the corresponding well plate and incubate at room temperature for 1 hour. The surrogate substrate DiFMUP (Invitrogen, Cat #D6567) was added to the reaction and allowed to react for 1 hour at room temperature. Fluorescence signals were monitored using a microplate reader (Envision, Perki Elmer) using excitation and emission wavelengths of 340 nm and […], respectively.(4) Data analysis:Calculation Formula:Suppression rate %=1-Conversion_sample-Conversion_min/Conversion_max-Conversion_min×100%

Data set [2] has as its target Potassium voltage-gated channel subfamily H member 2 (Homo sapiens, UniProt Q12809). The data set is described as follows: Electrophysiological Stimulation Protocol. An excerpt:
Measure the peak tail current.

Potassium voltage-gated channel subfamily H member 2, sequence (Q12809 whole entry): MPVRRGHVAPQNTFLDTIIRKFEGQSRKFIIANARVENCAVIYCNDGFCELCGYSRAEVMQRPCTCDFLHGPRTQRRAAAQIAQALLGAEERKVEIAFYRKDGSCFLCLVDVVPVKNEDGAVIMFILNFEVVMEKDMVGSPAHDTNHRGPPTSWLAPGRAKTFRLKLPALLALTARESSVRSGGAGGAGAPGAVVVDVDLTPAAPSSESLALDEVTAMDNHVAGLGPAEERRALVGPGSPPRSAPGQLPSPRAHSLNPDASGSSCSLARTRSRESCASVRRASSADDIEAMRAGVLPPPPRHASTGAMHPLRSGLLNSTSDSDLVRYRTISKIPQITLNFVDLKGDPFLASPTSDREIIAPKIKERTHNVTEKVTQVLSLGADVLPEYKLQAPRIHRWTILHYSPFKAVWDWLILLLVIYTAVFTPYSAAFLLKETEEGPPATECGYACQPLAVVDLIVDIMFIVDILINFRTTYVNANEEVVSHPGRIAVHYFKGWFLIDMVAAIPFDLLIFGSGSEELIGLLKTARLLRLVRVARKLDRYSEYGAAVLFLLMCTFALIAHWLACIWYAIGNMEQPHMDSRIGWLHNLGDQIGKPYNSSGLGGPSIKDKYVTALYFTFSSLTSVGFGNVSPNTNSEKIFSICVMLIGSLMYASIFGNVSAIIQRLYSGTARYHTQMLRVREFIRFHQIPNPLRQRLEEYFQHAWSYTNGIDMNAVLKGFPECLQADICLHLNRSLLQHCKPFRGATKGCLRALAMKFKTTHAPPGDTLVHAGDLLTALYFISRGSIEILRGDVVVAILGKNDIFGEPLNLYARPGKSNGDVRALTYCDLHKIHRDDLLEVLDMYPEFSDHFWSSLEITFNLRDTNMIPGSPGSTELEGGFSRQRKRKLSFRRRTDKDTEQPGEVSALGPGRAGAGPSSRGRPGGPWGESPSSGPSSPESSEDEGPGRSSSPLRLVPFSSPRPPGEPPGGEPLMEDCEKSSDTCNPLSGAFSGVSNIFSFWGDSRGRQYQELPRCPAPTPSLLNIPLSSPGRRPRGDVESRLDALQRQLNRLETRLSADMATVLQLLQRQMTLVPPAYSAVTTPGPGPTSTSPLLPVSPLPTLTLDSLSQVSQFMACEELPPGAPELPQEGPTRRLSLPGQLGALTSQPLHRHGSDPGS

`N[C@@H]1c2ccccc2CC12CCN(c1ncc(C#CCOc3cccc(Cl)c3F)nc1CO)CC2` [US20230339882, Example A05]: 4.9 nM corresponded to half-maximal inhibition in data set [1] (IC50).

In data set [1], `COc1ccccc1OCC#Cc1cnc(N2CCC3(CC2)Cc2ccccc2[C@H]3N)c(CO)n1` [US20230339882, Example A10] displayed an IC50 of 3.7 nM.

In data set [1], `N#Cc1ccc(OCC#Cc2cnc(N3CCC4(CC3)Cc3ccccc3[C@H]4N)c(CO)n2)cc1` [US20230339882, Example A12] displayed an IC50 of 1 nM.

With `N[C@@H]1c2ccccc2CC12CCN(c1ncc(C#CCOc3cccc(OC(F)(F)F)c3)nc1CO)CC2` [US20230339882, Example A15], the IC50 in data set [1] came out at 11 nM.

In turn, `CC(=O)c1cccc(OCC#Cc2cnc(N3CCC4(CC3)Cc3ccccc3[C@H]4N)c(CO)n2)c1` [US20230339882, Example A16] displayed an IC50 in data set [1] of 2.4 nM.

The compound `N[C@@H]1c2ccccc2CC12CCN(c1ncc(C#CCOc3ccc4ccc(=O)[nH]c4c3)nc1CO)CC2` [US20230339882, Example A24] came in with an IC50 in data set [1] of 2.4 nM.

As for `N[C@@H]1c2ccccc2CC12CCN(c1ncc(C#CCOc3ccc4c(c3)NC(=O)C4)nc1CO)CC2` [US20230339882, Example A25], in data set [1], the IC50 was 1.7 nM.

In data set [1], `CC(=O)Nc1cccc(OCC#Cc2cnc(N3CCC4(CC3)Cc3ccccc3[C@H]4N)n(C)c2=O)c1` [US20230339882, Example A34] displayed a half-maximal inhibitory concentration (IC50) of 5.3 nM.

`CNC(=O)c1cccc(OCC#Cc2cnc(N3CCC4(CC3)Cc3ccccc3[C@H]4N)c(CO)n2)c1` [US20230339882, Example A35]: the IC50 in data set [1] is 2.2 nM.

In data set [1], `CN(C)C(=O)c1cccc(OCC#Cc2cnc(N3CCC4(CC3)Cc3ccccc3[C@H]4N)c(CO)n2)c1` [US20230339882, Example A36] had a concentration for half-maximal inhibition (IC50) of 7.2 nM.

With `N[C@@H]1c2ccccc2CC12CCN(c1ncc(C#CCOc3ccc(C(F)(F)F)nc3)nc1CO)CC2` [US20230339882, Example A63], half-maximal inhibition in data set [1] (IC50) required 2.6 nM. Against the preceding compound, the IC50 is about 2.8-fold lower.

Regarding `N[C@@H]1c2ccccc2CC12CCN(c1ncc(C#CCNc3ccc4c(c3)NC(=O)CC4)nc1CO)CC2` [US20230339882, Example A64], the half-inhibitory concentration (IC50) in data set [1] is 2.6 nM.

`N[C@@H]1c2ccccc2CC12CCN(c1ncc(C#CCOc3ccc4[nH]ncc4c3)nc1CO)CC2` [US20230339882, Example A67] registered an IC50 in data set [1] of 3.1 nM.

Compound `CC(O)c1ccc(OCC#Cc2cnc(N3CCC4(CC3)Cc3ccccc3[C@H]4N)c(CO)n2)cc1` (stereo not given in full) [US20230339882, Example A71] had a half-inhibitory concentration (IC50) in data set [2] of more than 20000 nM.

In turn, `CNC(=O)c1ccc(OCC#Cc2cnc(N3CCC4(CC3)Cc3ccccc3[C@H]4N)c(CO)n2)cc1` [US20230339882, Example A72] showed an IC50 in data set [1] of 2.6 nM.
